Laboratory results reported in US20040038367A1, “Novel xyloglucan oligosaccharide-degrading enzyme, polynucleotide encoding the enzyme, and method of preparing the enzyme” (NATIONAL INSTITUTE OF ADVANCED INDUSTRIAL SCIENCE AND …, priority 2002, published 2004).

Biological target: T1, xyloglucan oligosaccharide-degrading enzyme (Geotrichum sp., UniProt Q8J0D2)
T1 construct: made in house; host or cells: Geotrichum sp. strain M128 (natural producer; enzyme purified, not recombinant)
Experiment: Inhibition of the enzyme activity by metal ions
Assay type: biochemical, Geotrichum sp. strain M128
Settings: concentration of 1 mM or more

[Hg+2] [mercury ion]
inhibition of the activity of the enzyme: strongly inhibited
